These results are taken from ChEMBL document CHEMBL3507680, “University of Dundee, Gates Library screen for HepG2 cell viability”.

The structures appear in SMILES notation.

This series can be described thus: Human HepG2 cell viability assay in 384 well format. Further details: dose 125 nL, time 70.5 hour; cytotoxicity at 70.5 h: concentration not given beside the values. To be noted: HepG2 cells, read-out: Inhibition. Type of series: toxicity, cell-based.
For the compound `CCC1=N[C@@]2(CC[C@@H]3CN(CC(=O)N(C)C)C[C@@H]32)C(=O)N1CC1CC1`, the cytotoxicity at 70.5 h is -13.2%.
In the case of `CC(C)(CN1CCCC1)CN1CCC(Cn2cc(CCO)nn2)CC1` it was 18.9%.
Consider `Cc1ccccc1N1CCCN(C(=O)CCCS(N)(=O)=O)CC1`, for which the cytotoxicity at 70.5 h was determined as 15.2%.
Under `CCN1CCCC(C)(C(=O)NCc2nnnn2-c2ccccc2)C1` (centres undefined) stands -5.49%; under `COc1ccc(C(C#N)NC(=O)Cc2ccc(F)c(F)c2)c(OC)c1` (centres undefined), -3.6%.
In the case of `Cc1csc(CN2CC[C@H]3C[C@H](c4noc(C)n4)O[C@@H]3C2)n1` it was -9.71%.
Under `Cc1ccc(CNC(=O)N2CCCC(NS(C)(=O)=O)C2)cc1` (centres undefined) stands 2.89%; under `O=C(O)CCCC(=O)Nc1cnn(COc2ccc(F)cc2Cl)c1`, 7.18%; under `CCc1nccn1CCC(=O)N1CC[C@@H](c2sccc2C)[C@H](O)C1`, -12.3%.
As for `Fc1cccc(CN2CCC(c3noc(-c4ccncc4)n3)CC2)c1F`, the cytotoxicity at 70.5 h is 2.58%.
In the case of `CCc1cc(N2CCC(NC3CN4CCC3CC4)CC2)nc(N(C)C)n1` (centres undefined) it was 29.4%.
In the case of `O=C(Cn1nc2ccccc2n1)N1CCCC(O)(CN2CCCC2)C1` (centres undefined) it was 13.9%.
In the case of `COc1ccc(-c2nc(CNCCn3cccn3)cs2)cc1` it was -5.1%.
In the case of `O=C(Nc1cc(-c2ccccc2)on1)N1CC[C@H](O)C1`, the cytotoxicity at 70.5 h is -1.65%.
Under `O=C(CC1CC1)N[C@@H]1CN(C(=O)c2ccoc2)C[C@@H]2CCCO[C@@H]21` stands -12.7%; under `COCCS(=O)(=O)Nc1cc(Cl)ccn1`, 14.3%; under `Cc1ccc(C2CCCN(S(C)(=O)=O)C2)nc1` (centres undefined), -2.08%.
In the case of `CS(=O)(=O)NCC1OCCc2cn(CC3CC3)nc21` (centres undefined) it was 13%; in that of `Cc1noc(C)c1CN(C)Cn1nccc1-c1cccnc1`, 10.8%.
For the compound `Cn1ccnc1CN1CCCC1c1noc(C2CC2)n1` (centres undefined), the cytotoxicity at 70.5 h came out at 1.39%.
Under `O=C(NC1CCCCC1)N1CCC(n2cc(-c3ccccn3)nn2)CC1` stands -6.7%; under `CCOC(=O)C1(CCOC)CCN(Cc2nccn2CC)CC1`, -7.56%.
Consider `Cc1ccc(C)c(NC(=O)N(C)Cc2cnn(C)c2)c1`, for which the cytotoxicity at 70.5 h was -3.32%.
In the case of `CNC(=O)C1Cn2ccnc2C2(CCN(Cc3nccs3)CC2)O1` (centres undefined) it was 10.7%; in that of `CNC(=O)CN1C(=O)CN(C(=O)COC)CCC(OC)c2ccccc21` (centres undefined), 15.1%.
For the compound `CN(C(=O)c1cccc(Cl)c1)C1CCN(c2ccccn2)CC1`, the cytotoxicity at 70.5 h amounted to 2.1%.
Under `CC(C)(C)CC(=O)NCCCn1cncn1` stands -6.64%; under `COC(=O)[C@@H]1Cc2ncn(C)c2CN1S(=O)(=O)c1ccc(OC)cc1`, -3.58%.
In the case of `Cc1[nH]c2c(F)cccc2c1CC(=O)NCc1csc(N(C)C)n1` it was 39.7%; in that of `Cc1cc(N(C)CCn2ccnc2C)n2nccc2n1`, -11.6%; in that of `Cn1cc(N2CCC(NC(=O)c3ccccc3F)C2=O)cn1` (centres undefined), -1.23%.
In the case of `Cc1nn(C)c(C)c1C1CCCN1C(=O)c1ccnc(N(C)C)c1` (centres undefined) it was -14.3%; in that of `CN(Cc1ccsc1)C(=O)CN1CCCCC1Cn1cccn1` (centres undefined), -10%; in that of `Cc1noc([C@H]2C[C@H]3OCC[C@H]3N(S(=O)(=O)C3CC3)C2)n1`, -11.6%.
For the compound `CCn1cnnc1C1CCN(C(=O)COCCc2ccccc2)CC1`, the cytotoxicity at 70.5 h was -3.71%.
In the case of `O=C(Nc1cccnc1)C1CCCN(c2cc(-n3cccn3)ncn2)C1` (centres undefined) it was 4.07%; in that of `Cc1cc(S(=O)(=O)N2CCCc3ccc(F)cc32)sc1C(=O)O`, -2.82%; in that of `CC(C)C[C@H](N)COc1cccc(F)c1Oc1ccc(Cl)cc1`, 26.2%.
Take `O=C1CSC(C(F)(F)F)c2c(O)nn(C3CCCCC3)c2N1` (centres undefined): the cytotoxicity at 70.5 h was found to be 15.2%.
